According to ChEMBL document CHEMBL1201862, “PubChem BioAssay data set” (2004):
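Protocol summary: plate cells (96-well), add compound at 5 concentrations, incubate 48 h, interpolate endpoints linearly. GI50: concentration for 50% inhibition of growth.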 Activity calls are given as the source filed them. Cut-off read from the data, not from the text of the source: active = GI50 up to about 1.1 µM and inactive = higher.

Legend:
Assay in all cases: inhibition of tumour cell growth, NCI panel, 48 h
HCT-116 = system: HCT-116
RXF 393 = system: RXF 393
UACC-62 = system: UACC-62
A498 = system: A498
HL-60 = system: HL-60
OVCAR-4 = system: OVCAR-4
HOP-18 = system: HOP-18
SN12C = system: SN12C
SF-268 = system: SF-268
CAKI-1 = system: CAKI-1
U-251 = system: U-251
SK-MEL-28 = system: SK-MEL-28
SF-295 = system: SF-295
HCT-15 = system: HCT-15
HCC 2998 = system: HCC 2998
Malme-3M = system: Malme-3M
NCI-H23 = system: NCI-H23
PC-3 = system: PC-3
MCF7 = system: MCF7
BT-549 = system: BT-549

| Compound | GI50 (HCT-116) | GI50 (RXF 393) | GI50 (UACC-62) | GI50 (A498) | GI50 (HL-60) | GI50 (OVCAR-4) | GI50 (HOP-18) | GI50 (SN12C) | GI50 (SF-268) | GI50 (CAKI-1) | GI50 (U-251) | GI50 (SK-MEL-28) | GI50 (SF-295) | GI50 (HCT-15) | GI50 (HCC 2998) | GI50 (Malme-3M) | GI50 (NCI-H23) | GI50 (PC-3) | GI50 (MCF7) | GI50 (BT-549) |
| --- | --- | --- | --- | --- | --- | --- | --- | --- | --- | --- | --- | --- | --- | --- | --- | --- | --- | --- | --- | --- |
| CCN(CC)CCSc1c2ccccc2nc2cc(NCC(=O)Nc3ccccc3-c3ccccc3NC(=O)CNc3ccc4c(SCCN(CC)CC)c5ccccc5nc4c3)ccc12 | > 78.3 µM (inactive) | > 100 µM (inactive) | > 100 µM (inactive) | > 100 µM (inactive) | 20.3 µM (inactive) | > 88.9 µM (inactive) | > 100 µM (inactive) | > 100 µM (inactive) | > 100 µM (inactive) | > 100 µM (inactive) | > 100 µM (inactive) | > 100 µM (inactive) | > 100 µM (inactive) | > 100 µM | > 100 µM (inactive) | > 77.3 µM (inactive) | > 100 µM (inactive) | – | – | – |
| COC(=O)/C(=N\NC(=O)C[N+](C)(C)C)C(C(=O)OC)C(=O)C(=O)Nc1ccccc1C(N)=O (stereo unspecified) | > 100 µM (inactive) | > 100 µM (inactive) | > 100 µM (inactive) | > 100 µM (inactive) | > 100 µM (inactive) | > 100 µM (inactive) | > 100 µM (inactive) | > 100 µM (inactive) | > 100 µM (inactive) | > 100 µM (inactive) | > 100 µM (inactive) | > 100 µM (inactive) | > 100 µM (inactive) | > 100 µM | > 100 µM (inactive) | > 100 µM (inactive) | > 100 µM (inactive) | – | – | – |
| C1=C2/CC[C@H](Sc3ccccc3)C2C2(CCCCC/1)OCCO2 (stereo partly specified) | 16.5 µM (inactive) | 15.7 µM (inactive) | 16.5 µM (inactive) | – | 8.41 µM (inactive) | – | 29.9 µM (inactive) | 32.3 µM (inactive) | 39.2 µM (inactive) | – | 29.3 µM (inactive) | 30.2 µM (inactive) | 27.5 µM (inactive) | – | 23.5 µM (inactive) | 22.1 µM (inactive) | 16.2 µM (inactive) | – | – | – |
| Cn1ccnc1CCc1ccc(Cl)c(Cl)c1 | > 100 µM (inactive) | > 100 µM (inactive) | > 100 µM (inactive) | 73.5 µM (inactive) | 69 µM (inactive) | > 100 µM (inactive) | 47.1 µM (inactive) | > 100 µM (inactive) | > 100 µM (inactive) | > 100 µM (inactive) | > 100 µM (inactive) | > 100 µM (inactive) | > 100 µM (inactive) | > 100 µM | – | > 100 µM (inactive) | > 100 µM (inactive) | – | – | – |
| C[C@@H]1OC2(O)[C@H]3CCCN3S(=O)(=O)CCN2C1=O (stereo partly specified) | > 100 µM (inactive) | > 100 µM (inactive) | > 100 µM (inactive) | > 100 µM (inactive) | > 100 µM (inactive) | > 100 µM (inactive) | > 100 µM (inactive) | > 100 µM (inactive) | > 100 µM (inactive) | > 100 µM (inactive) | > 100 µM (inactive) | > 100 µM (inactive) | > 100 µM (inactive) | > 100 µM | > 100 µM (inactive) | > 100 µM (inactive) | > 100 µM (inactive) | – | – | – |
| CN[C@@H](C)[C@H](NC)c1ccccc1 | > 100 µM (inactive) | > 100 µM (inactive) | > 100 µM (inactive) | – | > 100 µM (inactive) | – | > 100 µM (inactive) | > 100 µM (inactive) | – | > 100 µM (inactive) | > 100 µM (inactive) | > 100 µM (inactive) | > 100 µM (inactive) | 33.3 µM | > 100 µM (inactive) | > 100 µM (inactive) | > 100 µM (inactive) | – | – | – |
| CCCCCCCCCCCC(=O)OCC1OC(n2cc(F)c(=O)[nH]c2=O)C(NC(=O)OCc2ccccc2)C(OC(=O)CCCCCCCCCCC)C1O (stereo unspecified) | > 100 µM (inactive) | > 100 µM (inactive) | > 100 µM (inactive) | > 100 µM (inactive) | – | > 100 µM (inactive) | > 100 µM (inactive) | > 100 µM (inactive) | > 100 µM (inactive) | > 100 µM (inactive) | > 100 µM (inactive) | > 100 µM (inactive) | > 100 µM (inactive) | > 100 µM | > 100 µM (inactive) | > 100 µM (inactive) | > 100 µM (inactive) | – | – | – |
| O=Nc1c(-c2c(O)[nH]c3ccccc23)[nH]c2ccccc12 [INDIRUBIN-3-MONOXIME] | 2.52 µM (inactive) | 1.93 µM (inactive) | 2.93 µM (inactive) | 2.29 µM (inactive) | 2.72 µM (inactive) | 5.08 µM (inactive) | – | 2.98 µM (inactive) | 5.5 µM (inactive) | 0.64 µM (active) | 6.97 µM (inactive) | 6.9 µM (inactive) | 10.1 µM (inactive) | 2.48 µM | 4.27 µM (inactive) | 3.89 µM (inactive) | 7.83 µM (inactive) | 3.72 µM (inactive) | 3.13 µM (inactive) | 8.11 µM (inactive) |
| C=C(C)[C@@H]1CCC2=C[C@H](OC2=O)[C@@]2(C)C[C@@H]2C(=O)/C=C(/C)C(=O)[C@H]1OC(C)=O | 5.74 µM (inactive) | 16 µM (inactive) | 24.2 µM (inactive) | 23.2 µM (inactive) | 58.6 µM (inactive) | 13 µM (inactive) | – | 21.5 µM (inactive) | 28.1 µM (inactive) | 14.2 µM (inactive) | 28.6 µM (inactive) | 14.8 µM (inactive) | 42.6 µM (inactive) | 12.7 µM | 21.7 µM (inactive) | 12.1 µM (inactive) | 11.6 µM (inactive) | 13 µM (inactive) | 4.52 µM (inactive) | 11.4 µM (inactive) |
| CN(C)c1ccc(/C=C2\CNC/C(=C\c3ccc(N(C)C)cc3)C2=O)cc1 | 16 µM (inactive) | 24 µM (inactive) | 34.5 µM (inactive) | 17.6 µM (inactive) | – | 13.3 µM (inactive) | 18.9 µM (inactive) | 26.5 µM (inactive) | > 10 µM (inactive) | – | 14.4 µM (inactive) | 22.8 µM (inactive) | 76.4 µM (inactive) | 4.46 µM | 29.3 µM (inactive) | > 100 µM (inactive) | > 100 µM (inactive) | – | – | – |
| CCOC(=O)C1CCCC1S(=O)(=O)c1ccc(C)cc1 (stereo unspecified) | > 100 µM (inactive) | > 100 µM (inactive) | > 100 µM (inactive) | 45.3 µM (inactive) | > 100 µM (inactive) | > 100 µM (inactive) | – | > 100 µM (inactive) | > 100 µM (inactive) | > 100 µM (inactive) | > 100 µM (inactive) | > 100 µM (inactive) | > 100 µM (inactive) | > 100 µM | > 100 µM (inactive) | > 100 µM (inactive) | > 100 µM (inactive) | > 100 µM (inactive) | > 100 µM (inactive) | > 100 µM (inactive) |
| O=C1CCCC2C3CC(CN12)C1CCCCN1C3.[O-][Cl+3]([O-])([O-])O (stereo unspecified) | > 100 µM (inactive) | > 100 µM (inactive) | > 100 µM (inactive) | > 100 µM (inactive) | > 100 µM (inactive) | > 100 µM (inactive) | – | > 100 µM (inactive) | > 100 µM (inactive) | > 100 µM (inactive) | > 100 µM (inactive) | > 100 µM (inactive) | > 100 µM (inactive) | > 100 µM | > 100 µM (inactive) | > 100 µM (inactive) | > 100 µM (inactive) | > 100 µM (inactive) | > 100 µM (inactive) | > 100 µM (inactive) |
